According to patent US5216024A, “Cell growth inhibitors and methods of treating cancer and cell proliferative diseases” (Baylor College of Medicine, priority 1988, dated 1993):
“Also recorded” adds a separate entry of the source. Like-named read-outs stand apart in the source and are kept apart here. Blank lines part the entries; values can stand above or below the compound they belong to.

Key:
[1] = biological target: nuclear Type II estrogen binding sites; experiment: Inhibition assay: [3H]estradiol binding to nuclear Type II sites (uterine nuclei from estrogen-implanted ovariectomized rats); parameters: species or system rat; conditions: for IC50: Table I, read-out: TYPE II INHIBITION: concentration (nM) times 10^-2 to inhibit nuclear Type II binding sites by 50%
Description: Tissue was dissected from host animals, weighed, rinsed in saline, and homogenized in 10 mM Tris-1.5 mM EDTA, by approximately four 30-sec bursts in a Sorval Omnimixer with intermittent cooling for about 5 min. This crude homogenate was transferred to a Kontes ground glass homogenizer and further homogenized with intermittent cooling until no tissue aggregates were visible. It was imperative that the homogenate be kept cold, about 4° C. through all homogenization steps. The final homogenate was centrifuged at 800×g for approximately 20 min to obtain the crude nuclear pellet, which was then washed by gentle resuspension in a Dounce homogenizer and then centrifuged at 800×g for approximately 7 min. The final washed nuclear pellet was resuspended in 10 mM Tris-1.5 mM EDTA in a concentration ranging from 5 to 50 mg of fresh tissue equivalents/ml. By the term "fresh tissue equivalent" is meant the amount of material which represents the initial concentration in the fresh uterine tissue.
To assess total and nonspecific binding, aliquots of the nuclear suspension were incubated at 37° C. for 30 min with various concentrations ranging from 2 to 40 nM of [^3 H]estradiol with and without a large molar excess of diethylstilbestrol. The diethylstibestrol concentration ranged from 0.6 to 12.0 μM. Following incubation, the nuclear pellets were resuspended in about 1 ml of 10 mM Tris-1.5 mM EDTA buffer and centrifuged at 800×g for about 7 min. The pellet was extracted with 1 ml of ethanol at about 30° C. for about 30 min, and counted in 4 ml of Liquifluor. Specific binding was determined by substraction of nonspecific binding; i.e., not competable by diethylstilbestrol from the total quantity of [^3 H]estradiol bound. Results were expressed as sites/cell, assuming 8 pg of DNA/cell nucleus and that each binding site binds one molecule of [^3 H]estradiol.
In order to assess the levels of this inhibitor activity in various tissue cytosols and LH-20 column chromatography fractions from these cytosols, the following inhibition assay was used. Uterine nuclei were prepared from estrogen-implanted, adult-ovariectomizedrats. The washed nuclear pellet was diluted to 10 mg of fresh uterine equivalents/ml. At this concentration the effects of the endogenous inhibitor were minimal, and nuclear Type II sites bound maximum quantities of [^3 H]estradiol. Aliquots of these nuclei and the inhibitor sample were incubated at about 4° C. for approximately 60 min in the presence of 40 nM of [^3 H]estradiol with and without 12 μM diethylstilbestrol. Under these conditions, nuclear Type II sites were quantitatively measured without interference from Type I sites. The nuclear pellets were resuspended in 1 ml of 10 mM Tris-1.5 mM EDTA and centrifuged, ethanol extracted, and counted. The results were expressed as the percentage of [^3 H]estradiol bound as compared to the buffer control, or as the percentage of inhibition where 100% bound was 0% inhibition and was equivalent to approximately 45,000 cpm.
Thus, more nuclear Type II sites are measured in dilute than in concentrated nuclei. […] The uterine nuclei were prepared as previously described in Markaverich, B. M. et al., J. Biol. Chem. 258:11663-11671 (1983), the disclosure of which is herein incorporated by reference. Briefly, uterine nuclei after preparation were diluted in 10 mM Tris, 1.5 mM EDTA buffer in final volumes equivalent to 10, 20 or 40 mg fresh uterine equivalents per ml, and assayed for estrogen binding sites by [^3 H]estradiol exchange at 37° C. for 30 minutes. Specific binding was determined by subtraction of non-specific binding, i.e., non-competable with 300-fold excess diethylstilbestrol, from the total quantity of [^3 H]estradiol bound. […] Briefly, acid-precipitated, boiled cytosol from rat uterus, mouse mammary tumor and normal mouse mammary gland was diluted as shown on FIG. 2 and evaluated for inhibitor activity. […]

[2] = system: MCF-7 human breast cancer cells; experiment: MCF-7 cancer cell assay; type: cell-based; conditions: FIG. 12; 1-10 μg/ml, 6 days
Text: To assay for tumor growth sensitivity the MCF-7 human breast cancer cell line in tissue culture was used. One skilled in the art will recognize that this is an excellent model system to assess the effects of hormones and drugs on human cancer cell growth and proliferation. The MCF-7 cells have both Type I and nuclear Type II estrogen receptor sites and respond in a proliferative fashion to estrogenic hormones. Furthermore, they are inhibited by well-known anti-estrogens such as Tamoxifen. The MCF-7 cells were plated at 5×10^5 cells/dish in 30 mm petri dishes and grown in Dulbecco's Modified Eagles Medium containing about 10% charcoal stripped fetal bovine serum for approximately 48 hours. During this interval, the cells attached to the plastic dishes and then underwent exponential growth with a cell-doubling time of approximately 24 hours. The plated cells were allowed to attach for approximately 48 hours and the medium was replaced ("day zero"). The cells were allowed to grow exponentially for about 6 days. […] On day 6 the cells were harvested, counted on a hemocytometer and DNA content per dish was determined by the Burton assay (Burton, K., Biochem. J. 62:315-323, 1956). Results are expressed as cells/dish or DNA content (μg/dish) at 6 days following treatment. […]

malignant (tumor) cells = experiment: Metabolism / inactivation by malignant cells; type: in vitro ADME
[3] = system: cell growth and proliferation in normal and malignant cells; experiment: Cell growth / tumor proliferation inhibition (general statement); type: cell-based
[4] = system: estradiol stimulation of uterine growth (rat uterus); experiment: Uterotropic assay: block of estradiol stimulation of uterine growth in immature female rats; type: in vivo; conditions: for GROWTH INHIBITION (%): 10 μg compound, block of estradiol stimulation in the rat uterotropic assay; for block of estradiol stimulation of uterine growth (in words): immature rat, FIGS. 14, 15
Description: The rat uterus is exquisitively sensitive to estrogen, and this hormone stimulates uterine cellular hypertrophy, hyperplasia and DNA synthesis within 24 hours following a single injection. Estradiol stimulation of nuclear Type II sites is a prerequisite for these responses. This assay includes injecting immature female rats with saline-ethanol vehicle, estradiol-17β and the test compound of interest. Control rats were injected only with saline-ethanol vehicle and estradiol-17β. The rats were sacrificed 24 hours later and the uterine wet and dry weights were determined. The wet and dry weight measurements are well defined biochemical end points of estrogen action and are a direct index of changes in cell proliferation and DNA synthesis.
estradiol stimulation in the rat uterotropic assay.

[5] = system: estradiol stimulation of uterine growth (rat uterus); conditions: background statement; cited from earlier work
esterase = experiment: Stability to esterase cleavage; type: in vitro ADME
[6] = system: MCF-7 human breast cancer cells; conditions: general knowledge statement; cited from earlier work
[7] = listed as methyl p-hydroxyphenyllactate

SMILES: CC(=O)[C@H]1CC[C@H]2[C@@H]3CCC4=CC(=O)CC[C@]4(C)[C@H]3CC[C@]12C [progesterone]
inhibition of nuclear Type II sites associated with antagonism of uterotropic responses to estrogen [5]: associated with antagonism of uterotropic responses to estrogen

SMILES: COc1ccc2c(c1)CCC(c1ccccc1)=C2c1ccc(OCCN2CCCC2)cc1 [nafoxidine]
inhibition of nuclear Type II sites associated with antagonism of uterotropic responses to estrogen [5]: associated with antagonism of uterotropic responses to estrogen

SMILES: CC(=O)CCc1ccc(O)cc1 [1-(4-hydroxyphenyl)-3-butanone]
binding to / inhibition of nuclear Type II sites (in words) [1]: bind to Type II sites; also recorded: binds to the nuclear Type II sites with a high affinity
IC50 [1]: 200 nM
inhibition in culture and in vivo relative to MeHPLA (in words) ([3]; culture and in vivo): a better inhibitor in culture and in vivo
stability (in words) (esterase): not subject to the esterase cleavage; also recorded: more stable
GROWTH INHIBITION (%) [4]: 96%
block of estradiol stimulation of uterine growth (in words) [4]: antitumor proliferative activity in the uterotropic assay; also recorded: blocks estradiol stimulation of uterine growth when injected into immature rats

SMILES: CCN(CC)CCOc1ccc(C(=C(Cl)c2ccccc2)c2ccccc2)cc1 [clomiphene]
inhibition of nuclear Type II sites associated with antagonism of uterotropic responses to estrogen [5]: associated with antagonism of uterotropic responses to estrogen

SMILES: C[C@@H]1C[C@H]2[C@@H]3CCC4=CC(=O)C=C[C@]4(C)[C@@]3(F)[C@@H](O)C[C@]2(C)[C@@]1(O)C(=O)CO [dexamethasone]
inhibition of nuclear Type II sites associated with antagonism of uterotropic responses to estrogen [5]: associated with antagonism of uterotropic responses to estrogen

SMILES: CC/C(=C(\c1ccccc1)c1ccc(OCCN(C)C)cc1)c1ccccc1 [Tamoxifen]
inhibition of MCF-7 cells by known anti-estrogens [6]: inhibited

The next lines start with results.

IC50 [1]: 80 nM
fold more effective in inhibiting [3H]estradiol binding to nuclear Type II sites than the free acid (HPLA) ([1]; competition analysis, FIGS. 8 and 9, vs HPLA): approximately 20 fold
metabolism / inactivation by malignant cells (in words) (malignant (tumor) cells; listed as MeHPLA): malignant cells metabolize MeHPLA
SMILES: COC(=O)C(O)Cc1ccc(O)cc1 (centres unmarked) [methyl 3-(4-hydroxyphenyl)-2-hydroxypropionate]
inhibition of MCF-7 human breast cancer cells [2]: inhibited MCF-7 breast cancer cells in a similar dose-dependent fashion
metabolism / inactivation by malignant cells (in words) (malignant (tumor) cells; [7]): tumor cells have the ability to inactivate methyl p-hydroxyphenyllactate
cell growth inhibition / antitumor activity (in words) ([3]; listed as MeHPLA): cell growth and proliferation are inhibited; also recorded: cell growth and proliferation of non-malignant tissues are slowed down or stopped
GROWTH INHIBITION (%) [4]: 90%
block of estradiol stimulation of uterine growth (in words) ([4]; listed as MeHPLA): block estrogen stimulation of normal cell growth such as that in the rat uterus
block of estradiol stimulation of uterine growth (in words) [4, 7]: block estradiol stimulation of uterine growth in the immature rat

IC50 [1]: 600 nM
SMILES: COC(=O)C=Cc1ccc(O)c(OC)c1 [methyl 3-(4-hydroxy-3-methoxyphenyl)-2-propenoate]
GROWTH INHIBITION (%) [4]: 56%

IC50 [1]: 100 nM
SMILES: COC(=O)C=Cc1ccc(O)c(O)c1 [methyl 3-(3,4-dihydroxyphenyl)-2-propenoate]
GROWTH INHIBITION (%) [4]: 70%

IC50 [1]: 80 nM
SMILES: COC(=O)COc1ccc(O)cc1 [methyl (4-hydroxyphenoxy) acetate, methyl (4-hydroxyphenoxy)acetate]
GROWTH INHIBITION (%) [4]: 70%

IC50 [1]: 8000 nM
fold lower affinity for nuclear Type II sites than methyl p-hydroxyphenyllactate ([1]; vs MeHPLA): 20 fold
SMILES: O=C(O)C(O)Cc1ccc(O)cc1 (centres unmarked) [3-(4-hydroxyphenyl)-2-hydroxypropionic acid, reference compound]
binding to / inhibition of nuclear Type II sites (in words) [1]: low binding affinity for nuclear Type II sites
inhibition of MCF-7 human breast cancer cells [2]: did not
cell growth inhibition / antitumor activity (in words) [3]: inhibits the cell growth much less effectively
GROWTH INHIBITION (%) [4]: 0%
block of estradiol stimulation of uterine growth (in words) ([4]; listed as hydroxyphenyllactic acid): higher doses of hydroxyphenyllactic acid showed some partial antagonism; also recorded: but not hydroxyphenyllactic acid

binding to / inhibition of nuclear Type II sites (in words) [1]: bind to Type II sites
SMILES: CCC(=O)CCc1ccc(O)cc1 [1-(4-hydroxyphenyl)-3-pentanone]
block of estradiol stimulation of uterine growth (in words) [4]: antitumor proliferative activity in the uterotropic assay
